Experimental findings from paper PMC5610748, “Evaluation of Novel α-(Acyloxy)-α-(Quinolin-4-yl) Acetamides as Antiplasmodial Agents” (Iranian Journal of Pharmaceutical Research : IJPR, 2017) are described below.

Like-named read-outs stand apart in the source and are kept apart here.

Assay [1] concerns P. falciparum 3D7 chloroquine-sensitive strain. Description: In-vitro antiplasmodial test (Giemsa-stained smears). The class given is cell-based, Plasmodium falciparum. To be noted: read-out: P. falciparum IC50. How it is done:
The P. falciparum 3D7 chloroquine-sensitive strain used throughout the study. In-vitro culture of P. falciparum was carried out according to the method described by previously ([12]-[14]). Briefly, parasites were cultured on human erythrocytes (blood group O^+), provided by the Blood Transfusion Organization (Zanjan, Iran), in RPMI 1640 medium completed with 5% of human AB^+ serum, 0.3 g/100 mL Albumax I, 25 mM HEPES, 19 mM sodium carbonate and 30 µg/mL gentamicin sulfate at pH 7.2. Type O^+ erythrocytes were washed three times with RPMI 1640 and stored at 4 °C.
Parasites were aerated in 25 mL flasks under 3% oxygen, 6% carbon dioxide and 91% nitrogen atmosphere. The medium was changed each day.
Pure compounds were dissolved in DMSO at concentration of 10 mg/mL and diluted with complete malaria culture medium to reach 1 mg/mL before use. Parasites were synchronized to the ring stage by sorbitol method described previously ([15]). From 2-fold dilution series (50-0.39 µg/mL) of compounds prepared in assay medium, 20 µL added to each well of 96-well microtiter plates in triplicate. One hundred eighty µL of synchronous P. falciparum culture (1% parasitemia, 2% hematocrit) added to each well reaching a final volume of 200 µL per well. […] Plates were incubated at 37 °C for 24 h. […] After 24 h incubation, Giemsa stained thin smears were made and parasitemia was confirmed by the numeration of 1000 erythrocytes per slide. Data acquired by counting the erythrocytes in Giemsa stain were imported in Microsoft Excel spreadsheet and IC50 values were calculated from dose-response curves.

Assay [2] deals with human hepatocellular carcinoma cell line (HepG2). Description: In-vitro cytotoxicity assay (MTT). The class given is cell-based. The note with it: HepG2 cells, 24 h incubation. How it is done:
In drug discovery approaches against malaria, one of the important strategies is the safety of active compounds against human. So, the toxicity of active compounds against P. falciparum was assessed on human hepatocellular carcinoma cell line (HepG2) by using MTT (3-[4,5-dimethylthiazol-2-yl] -2,5 diphenyl tetrazolium bromide) assay ([16]-[17]). The cells were cultured in RPMI 1640 medium enriched with 10% FBS (Fetal Bovine Serum) and incubated at 37 °C with 5% CO2 and 96% humidity. After several subcultures, cells were distributed in 96-well plates at 4,000 cells in 100 µL of culture medium and incubated for 24 h at the same condition to allow attachment of cells to the bottom of wells. Then culture medium removed and 100 µL of two-fold serially diluted concentrations of drug (400-1.56 µg/mL) added to each well in triplicate. Microtiter plates further incubated for 24 h in the same condition. Culture medium without drug was used as negative control. After the incubation time, the drug containing medium discharged and for evaluation of cell survival, 25 µL of MTT solution (4 mg/mL in PBS) added to each well and plates incubated for 3 h (in same condition). Then 100 µL of DMSO added to each well and plates were gently shaken to dissolve the formed formazan crystals. The absorbance of each well measured at 540 nm using an ELISA plate reader (Infinite M200, Tecan). The GI% (Growth Inhibition percent) was calculated using the formula Growth Inhibition% = 100 – […], where ODtest is the mean absorbance of treated cells and ODcontrol is the mean absorbance of a negative control. The cell survival of control assumed 100% and IC50 values generated from dose-response curves for each cell line.

Setting [3] is: 3D7 chloroquine-sensitive strain, ring-stage synchronized, 24 h incubation, parasitemia by Giemsa smears.
Setting [4] is: Plasmodium falciparum, 3D7 chloroquine-sensitive strain, ring-stage synchronized, 24 h incubation, parasitemia by Giemsa smears.

Consider `CC(C)(C)c1ccc(C(=O)OC(C(=O)NC2CCCCC2)c2ccnc3ccccc23)cc1` (stereo not drawn) [Compound 2], for which the IC50 (as a rule, the point on the concentration scale where inhibition reaches its midpoint) in assay [1] (setting [3]) is 2.64 µM; in assay [2] it was 191 µM.

Consider `O=C(OC(C(=O)NC1CCCCC1)c1ccnc2ccccc12)c1ccccc1` (stereo not drawn) [Compound 1], for which the values for the 50% inhibitory concentration (IC50) in assay [1] (setting [4]) and in assay [2] (Homo sapiens) were 1.51 µM and 230 µM, respectively.

Take `CC(C)(C)NC(=O)C(OC(=O)c1ccccc1)c1ccnc2ccccc12` (stereo not drawn) [Compound 11]: the IC50 in assay [1] (setting [3]) came to 4.35 µM.

On to `CC(C)(C)NC(=O)C(OC(=O)c1ccc(C#N)cc1)c1ccnc2ccccc12` (stereo not drawn) [Compound 17], for which the IC50 in assay [1] (setting [3]) was found to be 3.08 µM.

For `Cc1cccc(C)c1NC(=O)C(OC(=O)c1ccc(C(C)(C)C)cc1)c1ccnc2ccccc12` (stereo not drawn) [Compound 20], the half-inhibitory concentration (IC50) came to 1.37 µM in assay [1] (setting [4]) and 199 µM in assay [2] (Homo sapiens).

On to `CC(C)(C)NC(=O)C(OC(=O)c1ccc(Cl)cc1)c1ccnc2ccccc12` (stereo not drawn) [Compound 13], for which the IC50 in assay [1] (setting [3]) is 5.85 µM.

On to `O=C(OC(C(=O)NC1CCCCC1)c1ccnc2ccccc12)c1ccc(Cl)cc1` (stereo not drawn) [Compound 4], for which the IC50 in assay [1] (setting [3]) came to 5.02 µM.

In the case of `CC(C)(C)NC(=O)C(OC(=O)c1cccc2ccccc12)c1ccnc2ccccc12` (stereo not drawn) [Compound 18], in assay [1] (setting [3]), the IC50 turned out to be 6.95 µM.

`Cc1cccc(C)c1NC(=O)C(OC(=O)c1ccc(Cl)cc1)c1ccnc2ccccc12` (stereo not drawn) [Compound 21]: the IC50 in assay [1] (setting [3]) amounted to 4.18 µM.

As to `CCN(CC)CCCC(C)Nc1ccnc2cc(Cl)ccc12` (stereo not drawn) [CQ, Chloroquine, reference compound], the IC50 in assay [1] (Plasmodium falciparum, 3D7, 24 h) turned out to be 0.7 µM.

With `Cc1cccc(C)c1NC(=O)C(OC(=O)c1cccc2ccccc12)c1ccnc2ccccc12` (stereo not drawn) [Compound 22], the half-maximal inhibitory concentration (IC50) in assay [1] (setting [4]) stood at 1.32 µM; in assay [2] (Homo sapiens) it was 254 µM.

Consider `O=C(OC(C(=O)NC1CCCCC1)c1ccnc2ccccc12)c1ccc(I)cc1` (stereo not drawn) [Compound 8], for which, in assay [1] (setting [3]), the IC50 turned out to be 3.5 µM.

Take `Cc1cccc(C)c1NC(=O)C(OC(=O)c1ccccc1)c1ccnc2ccccc12` (stereo not drawn) [Compound 19]: the 50% inhibitory concentration (IC50) in assay [1] (setting [3]) was determined as 4.31 µM.

In the case of `CC(C)(C)NC(=O)C(OC(=O)c1ccc(Br)cc1)c1ccnc2ccccc12` (stereo not drawn) [Compound 16], in assay [1] (setting [3]), the IC50 was 5.1 µM.
